Test results taken from US20040022788A1, “Compositions and methods for promoting or inhibiting angiogenesis” (priority 1998, published 2004).
Entries after “also recorded” stand apart in the source; their conditions may differ.

Columns and labels:
HUVEC [1] = test: HUVEC proliferation assay (MTS/PMS); type: cell-based, human; settings: for Percent proliferation inhibited, ±SEM, Without Antibody: 24 h
Experimental: Proliferation Assay. HUVEC were plated at a density of 5,000 cells/well in media depleted of FCS overnight to allow the cells to become quiescent. […] In some experiments antibody directed against the alpha subunit of ATP synthase derived from E. coli was also added at a dilution of 1:10. MTS/PMS [(3-(4,5-dimethylthiazol-2-yl)-5-(3-carboxymethoxyphenyl)-2-(4-sulfophenyl)-2H-tetrazolium inner salt/phenazine methosulfate] solution was added after 24 h, and the absorbance of formazan was quantitated on a Thermomax plate reader at a wavelength of 490 nm according to the manufacturer's specifications (Promega). The absorbance values used to calculate the percent proliferation of the cells ranged from 0.81 for untreated, 0.60 for treated, and 0.47 for baseline quiescent cells.
Anti-alpha-subunit ATP synthase antibody derived from E. coli was added concomitantly at a dilution of 1:10. MTS/PMS solution was added and absorbance of formazan was quantitated according to the manufacturer's specifications. Results represent three separate experiments performed in duplicate with SEM. Percent recovery represents the ability of the anti-alpha-subunit ATP synthase antibody to block the antiproliferative effect of angiostatin, and thereby restore proliferation to an average of 81% of that obtained with the control cells.

[2] = target: T1, purified bovine F1 ATP synthase (Bos taurus, UniProt P00829+P19483); test: ELISA binding of angiostatin to purified F1 ATP synthase; settings: double-reciprocal plots; 1 μg F1 ATP synthase per well; read-out: apparent dissociation constant Kd(app)
T1 construct: from tissue; host or cells: bovine heart mitochondria
Experimental: FIG. 11 is a bar graph showing the binding of angiostatin to purified bovine F1 ATP synthase. ELISA was used to determine concentration-dependent binding of angiostatin to a constant amount of F1 ATP synthase. Each well was coated with 1 μg of F1 ATP synthase prior to addition of […] amounts of angiostatin.
ELISA Binding Studies. Binding studies were performed with purified F1 subunit of bovine ATP synthase ([…]) passively adsorbed onto polyvinylchloride microtiter 96-well flat bottom plates (Dynex Technologies, Inc, Chantilly, Va.) as previously described (22). Briefly, plates were coated with protein in 50 μl of 0.1M Na2CO3, pH9.6 and incubated 2 h at 37° C. Non-specific sites were blocked by incubating with PBS, pH 7.0 containing 1% BSA for 30 min at rt. Binding studies were performed with increasing amounts of angiostatin (0-0.5 mg/ml) added in a […] for 1 h at 37° C. Plates were washed (0.1% Tween20/PBS, pH 7.0) and incubated with anti-human angiostatin antibody (goat IgG) (R&D Systems, Minneapolis, Minn.) (1:200 dil) overnight at 4° C. […] Plates were washed and 150 μl of OPD substrate was added to each well and the reaction stopped with 25 μl of H2SO4 (25%), before monitoring the absorbance at λ=492 nm in a Molecular Devices SpectraMax Plus-384 plate reader. […]

HUVEC [3] = test: HUVEC cell proliferation assay (CyQUANT); type: cell-based, human; settings: 1 μM; 24 hrs; n = 3
Experimental: Cell Proliferation Assay. HUVEC were plated at a density of 5000 cells/well in media depleted of fetal calf serum (FCS) overnight to allow the cells to become quiescent. Fresh media containing 5% FCS, 10 ng/ml basic fibroblast growth factor (bFGF) and 3 ng/ml vascular endothelial growth factor (VEGF) were added to the wells along with angiostatin (1.0 μM), antibody directed against the recombinant human alpha-subunit of ATP synthase (1:10 dil), antibody directed against the recombinant human beta-subunit of ATP synthase (1:10 dil), pre-immune serum (1:10 dil) or cycloheximide ([…]). Cell density was measured after 24 hrs using CyQUANT Cell Proliferation Assay Kit (Molecular Probes) in a fluorometric plate reader (Molecular Devices). The absorbance values used to calculate the percent proliferation of the cells ranged from 1.24 or 1.00 for treated and 2.57 for untreated.

[4] = test system: plasminogen binding sites on HUVEC; test: Competition binding assay, 125I-labeled plasminogen on HUVEC; design: species or system human; settings: 1.0 μM 125I-labeled plasminogen; 100-fold molar excess of unlabeled angiostatin
Experimental: FIG. 2. Competition binding assay between plasminogen and angiostatin. HUVEC were plated at a density of 10,000 cells/well and incubated with 1.0 μM ^125I-labeled plasminogen in the presence of 100-fold molar excess of unlabeled angiostatin for 1 h at 4° C. Cells were washed and the remaining radioactivity was quantified by γ-counting.
Binding Assays. Ligands were radioiodinated by using Iodobeads (Pierce), repurified on L-lysine-Sepharose, eluted with 100 mM ε-aminocaproic acid, and dialyzed in PBS, pH 7.0 before use in binding assays. HUVEC were plated at a density of 5,000 or 10,000 cells/well and incubated with increasing concentrations of ^125I-labeled ligand in media containing 1% BSA for 1 h at 4° C. in 96-well plates. Wells were washed, and remaining bound radioactivity was quantified by using an LKB 1272 γ-radiation counter. Nonspecific binding was measured in the presence of excess unlabeled ligand.

- Kd [2]: 12 nM
Substance: angiostatin
- Percent proliferation inhibited, ±SEM, With antibody (HUVEC [1]; angiostatin 0.5 μM plus anti-alpha subunit ATP synthase antibody 1:10): 1 ± 0.2%
- Percent proliferation inhibited, ±SEM, Without Antibody (HUVEC [1]; angiostatin 0.5 μM): 10 ± 1.4%
- Percent proliferation inhibited, ±SEM, With antibody (HUVEC [1]; angiostatin 0.75 μM plus anti-alpha subunit ATP synthase antibody 1:10): 5 ± 4.1%
- Percent proliferation inhibited, ±SEM, Without Antibody (HUVEC [1]; angiostatin 0.75 μM): 25 ± 4.2%
- Percent proliferation inhibited, ±SEM, With antibody (HUVEC [1]; angiostatin 1.0 μM plus anti-alpha subunit ATP synthase antibody 1:10): 6 ± 0.8%
- Percent proliferation inhibited, ±SEM, Without Antibody (HUVEC [1]; angiostatin 1.0 μM): 23 ± 9.0%
- Percent Inhibition (+/− S.E.M.) of HUVEC proliferation (HUVEC [3]): 57.2 +/− 1.16%
- inhibition of 125I-labeled plasminogen binding [4]: unaffected; also recorded: no inhibition; also recorded: not inhibited
